Results: US20220062240A1, “METHODS OF TREATING CANCER USING A CLK INHIBITOR” (BioSplice Therapeutics, Inc., priority 2018, published 2022)
Where two headings read alike, the source gives them in different places.

Legend:
CLK3 = CLK3 (Homo sapiens, UniProt P49761); assay: CLK3 kinase activity assay (Z-lyte, Ser/Thr 18 peptide)
[1] = system: lung cancer (4 cell lines); assay: CellTiter-Glo Viability Assay, lung cancer; assay type: cell-based; details: Homo sapiens, inhibition of cancer cell proliferation
[2] = system: pancreatic cancer (8 cell lines); assay: CellTiter-Glo Viability Assay, pancreatic cancer; assay type: cell-based; details: Homo sapiens, inhibition of cancer cell proliferation
all 50 cell lines = assay: CellTiter-Glo Viability Assay, average across all cell lines; assay type: cell-based; details: Homo sapiens; across all 50 cell lines; read-out: average EC50 for inhibition of cancer cell proliferation
How it was run: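 Cancer cell lines of several tumour types plated at 300-3,000 cells/well and exposed to compound in duplicate for four days at 37° C, 5% CO2, with DMSO-treated controls. Viability read by CellTiter-Glo luminescence (ATP content); EC50 derived from dose-response curves.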

[3] = system: colorectal cancer (6 cell lines); assay: CellTiter-Glo Viability Assay, colorectal cancer; assay type: cell-based; details: Homo sapiens, inhibition of cancer cell proliferation
[4] = system: liver cancer (3 cell lines); assay: CellTiter-Glo Viability Assay, liver cancer; assay type: cell-based; details: Homo sapiens, inhibition of cancer cell proliferation
BT-549 = assay: CellTiter-Glo Viability Assay, breast cancer; assay type: cell-based; details: Homo sapiens, 96 h; BT-549, breast cancer, four days; read-out: EC50
ZR-75-1 = assay: CellTiter-Glo Viability Assay, breast cancer; assay type: cell-based; details: Homo sapiens, 96 h; ZR-75-1, breast cancer, four days; read-out: EC50
T47D = assay: CellTiter-Glo Viability Assay, breast cancer; assay type: cell-based; details: Homo sapiens, 96 h, breast cancer, four days, read-out: EC50
DU4475 = assay: CellTiter-Glo Viability Assay, breast cancer; assay type: cell-based; details: Homo sapiens, DU-4475, 96 h; DU4475, breast cancer, four days; read-out: EC50
MDA-MB-231-Luc = assay: CellTiter-Glo Viability Assay, breast cancer; assay type: cell-based; details: Homo sapiens, 96 h; MDA-MB-231-Luc, breast cancer, four days; read-out: EC50
CAMA1 = assay: CellTiter-Glo Viability Assay, breast cancer; assay type: cell-based; details: Homo sapiens, CAMA-1, 96 h; CAMA1, breast cancer, four days; read-out: EC50
HCC1599 = assay: CellTiter-Glo Viability Assay, breast cancer; assay type: cell-based; details: Homo sapiens, 96 h; HCC1599, breast cancer, four days; read-out: EC50
MCF7 = assay: CellTiter-Glo Viability Assay, breast cancer; assay type: cell-based; details: Homo sapiens, 96 h; MCF7, breast cancer, four days; read-out: EC50
[5] = system: prostate cancer (5 cell lines); assay: CellTiter-Glo Viability Assay, prostate cancer; assay type: cell-based; details: Homo sapiens
CLK2 = target: T1, CLK2 (Homo sapiens, UniProt P49760); assay: CLK2 kinase activity assay (Z-lyte, Ser/Thr 6 peptide); assay type: biochemical; details: recombinant CLK2 kinase, ATP 60 μM; read-out: EC50
T1 construct: purchased Thermo Fisher (Life Technologies), Z'-LYTE Kinase Assay Kits
Procedure: All reactions were performed in duplicate.

[6] = system: haematopoietic & lymphoid tumors (13 cell lines); assay: CellTiter-Glo Viability Assay, haematopoietic & lymphoid tumors; assay type: cell-based; details: Homo sapiens, inhibition of cancer cell proliferation
[7] = system: ovarian cancer (4 cell lines); assay: CellTiter-Glo Viability Assay, ovarian cancer; assay type: cell-based; details: Homo sapiens, inhibition of cancer cell proliferation

Chain of CLK3 (P49761 whole entry): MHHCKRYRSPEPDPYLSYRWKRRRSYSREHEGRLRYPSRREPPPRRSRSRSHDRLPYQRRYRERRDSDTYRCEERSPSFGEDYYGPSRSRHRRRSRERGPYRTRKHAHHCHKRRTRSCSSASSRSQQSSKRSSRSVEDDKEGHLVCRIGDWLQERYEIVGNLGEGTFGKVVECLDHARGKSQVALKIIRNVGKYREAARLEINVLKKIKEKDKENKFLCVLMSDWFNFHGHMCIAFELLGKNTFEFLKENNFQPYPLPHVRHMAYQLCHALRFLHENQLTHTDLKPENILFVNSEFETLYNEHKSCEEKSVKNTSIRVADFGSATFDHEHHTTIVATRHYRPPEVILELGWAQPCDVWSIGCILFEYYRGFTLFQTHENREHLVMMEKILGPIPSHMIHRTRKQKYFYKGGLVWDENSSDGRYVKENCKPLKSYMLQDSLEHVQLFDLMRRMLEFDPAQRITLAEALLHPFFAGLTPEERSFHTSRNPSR
T1 sequence (P49760 whole entry): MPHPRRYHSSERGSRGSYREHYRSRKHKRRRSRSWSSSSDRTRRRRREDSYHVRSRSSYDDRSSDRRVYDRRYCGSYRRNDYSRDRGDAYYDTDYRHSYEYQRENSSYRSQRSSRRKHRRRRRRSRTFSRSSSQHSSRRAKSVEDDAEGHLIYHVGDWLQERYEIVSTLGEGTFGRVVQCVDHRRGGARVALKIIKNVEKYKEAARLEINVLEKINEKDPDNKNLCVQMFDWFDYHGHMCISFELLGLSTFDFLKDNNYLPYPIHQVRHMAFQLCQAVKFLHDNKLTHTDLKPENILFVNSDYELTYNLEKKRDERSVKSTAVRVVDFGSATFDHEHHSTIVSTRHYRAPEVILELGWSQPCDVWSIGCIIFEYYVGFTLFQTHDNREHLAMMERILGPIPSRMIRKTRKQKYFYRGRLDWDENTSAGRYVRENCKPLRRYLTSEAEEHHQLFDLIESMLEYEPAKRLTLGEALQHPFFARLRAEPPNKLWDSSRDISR

Which results are given for `CN1CCC(Oc2ccc(C(=O)Nc3cc4cc(-c5cnn(C)c5)ccc4cn3)cc2)CC1` [Compound 68]?
EC50 (CLK3): 13.6 nM; EC50 ([1]; A-427, A427 cell line, read-out: Lung cancer, EC50 (μM) A427): 0.506 µM; EC50 ([1]; HCC78, HCC-78 cell line, read-out: Lung cancer, EC50 (μM) HCC-78): 1.14 µM; EC50 ([1]; NCI-H460 cell line, read-out: Lung cancer, EC50 (μM) NCI-H460): 0.709 µM; EC50 ([1]; NCI-H522 cell line, read-out: Lung cancer, EC50 (μM) NCI-H522): 0.277 µM; EC50 ([2]; BXPC-3, BxPC3 cell line, read-out: Pancreatic cancer, EC50 BxPC3): 443 nM; EC50 ([2]; CAPAN-1, Capan1 cell line, read-out: Pancreatic cancer, EC50 Capan1): 811 nM; EC50 ([2]; Capan-2, Capan2 cell line, read-out: Pancreatic cancer, EC50 Capan2): 1650 nM; EC50 ([2]; MIA PaCa-2 cell line, read-out: Pancreatic cancer, EC50 MIA PaCa-2): 279 nM; EC50 ([2]; PANC 05.04 cell line, read-out: Pancreatic cancer, EC50 PANC 05.04): 1040 nM; EC50 ([2]; PANC-1 cell line, read-out: Pancreatic cancer, EC50 PANC-1): 903 nM; EC50 ([2]; UPAFII cell line, read-out: Pancreatic cancer, EC50 UPAFII): 435 nM; EC50 (all 50 cell lines): 632 nM; EC50 ([3]; HCT-116, HCT116 cell line, read-out: Colorectal cancer, EC50 (μM) HCT116): 0.389 µM; EC50 ([3]; HT-29, HT29 cell line, read-out: Colorectal cancer, EC50 (μM) HT29): 0.774 µM; EC50 ([3]; SW-620, SW620 cell line, read-out: Colorectal cancer, EC50 (μM) SW620): 0.206 µM; EC50 ([3]; DLD-1 cell line, read-out: Colorectal cancer, EC50 (μM) DLD-1): 0.35 µM; EC50 ([3]; SW48 cell line, read-out: Colorectal cancer, EC50 (μM) SW48): 0.19 µM; EC50 ([3]; SW480 cell line, read-out: Colorectal cancer, EC50 (μM) SW480): 0.546 µM; EC50 ([4]; SNU-398, SNU398 cell line, read-out: Liver cancer, EC50 SNU398): 134 nM; EC50 ([4]; HEPG2 cell line, read-out: Liver cancer, EC50 HEPG2): 597 nM; EC50 ([4]; PLC/PRF/5 cell line, read-out: Liver cancer, EC50 PLC/PRF/5): 1270 nM; EC50 (BT-549): 421 nM; EC50 (ZR-75-1): 1370 nM; EC50 (T47D): 1180 nM; EC50 (DU4475): 487 nM; EC50 (MDA-MB-231-Luc): 1110 nM; EC50 (CAMA1): 901 nM; EC50 (HCC1599): 224 nM; EC50 (MCF7): 1820 nM; EC50 ([5]; DU-145, read-out: Prostate cancer EC50 Du-145): 652 nM; EC50 ([5]; PC-3, PC3 cell line, inhibition of cancer cell proliferation, read-out: Prostate cancer EC50 PC3): 602 nM; EC50 ([5]; 22Rv1 cell line, inhibition of cancer cell proliferation, read-out: Prostate cancer EC50 22Rv1): 449 nM; EC50 ([5]; LNCap clone FGC cell line, inhibition of cancer cell proliferation, read-out: Prostate cancer EC50 LNCap clone FGC): 651 nM; EC50 ([5]; VCaP (Sigma) cell line, inhibition of cancer cell proliferation, read-out: Prostate cancer EC50 VCaP (Sigma)): 1380 nM; EC50 (CLK2): 0.6 nM; EC50 ([6]; DND41, DND-41 cell line, read-out: Haematopoietic & Lymphoid tumors, EC50 (μM) DND-41): 0.571 µM; EC50 ([6]; MV4-11, MV-4-11 cell line, read-out: Haematopoietic & Lymphoid tumors, EC50 (μM) MV-4-11): 0.07 µM; EC50 ([6]; Rec1, REC-1 cell line, read-out: Haematopoietic & Lymphoid tumors, EC50 (μM) REC-1): 0.162 µM; EC50 ([6]; SU-DHL-4, SUDHL4 cell line, read-out: Haematopoietic & Lymphoid tumors, EC50 (μM) SUDHL4): 0.523 µM; EC50 ([6]; HL-60 cell line, read-out: Haematopoietic & Lymphoid tumors, EC50 (μM) HL-60): 0.958 µM; EC50 ([6]; JM1 cell line, read-out: Haematopoietic & Lymphoid tumors, EC50 (μM) JM1): 0.165 µM; EC50 ([6]; JURKAT, Clone E6-1 cell line, read-out: Haematopoietic & Lymphoid tumors, EC50 (μM) JURKAT, Clone E6-1): 0.561 µM; EC50 ([6]; JeKo-1 cell line, read-out: Haematopoietic & Lymphoid tumors, EC50 (μM) JeKo-1): 0.176 µM; EC50 ([6]; KASUMI-1 cell line, read-out: Haematopoietic & Lymphoid tumors, EC50 (μM) KASUMI-1): 0.257 µM; EC50 ([6]; Loucy cell line, read-out: Haematopoietic & Lymphoid tumors, EC50 (μM) Loucy): 0.317 µM; EC50 ([6]; MOLT-4 cell line, read-out: Haematopoietic & Lymphoid tumors, EC50 (μM) MOLT-4): 0.546 µM; EC50 ([6]; TF-1 cell line, read-out: Haematopoietic & Lymphoid tumors, EC50 (μM) TF-1): 0.649 µM; EC50 ([6]; TOLEDO cell line, read-out: Haematopoietic & Lymphoid tumors, EC50 (μM) TOLEDO): 0.183 µM; EC50 ([7]; PA-1, PA1 cell line, read-out: Ovarian cancer, EC50 (μM) PA1): 0.537 µM; EC50 ([7]; TOV112D, TOV-112D cell line, read-out: Ovarian cancer, EC50 (μM) TOV-112D): 0.327 µM; EC50 ([7]; OV-90 cell line, read-out: Ovarian cancer, EC50 (μM) OV-90): 1.48 µM; EC50 ([7]; OVCAR-3 cell line, read-out: Ovarian cancer, EC50 (μM) OVCAR-3): 0.232 µM
